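Assay format: 96-well plates, 48-hour exposure. GI50 is the concentration that inhibits growth by half.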 The source made the active and inactive calls. No stated cut-off is given here; in the data, active = GI50 up to about 1.1 µM and inactive = higher.
Assays:
Experiment in all cases: NCI-60 cell line screen, 48 h
IGROV-1 = tested on: IGROV-1
SK-MEL-2 = tested on: SK-MEL-2
HL-60 = tested on: HL-60
UACC-62 = tested on: UACC-62
Malme-3M = tested on: Malme-3M
HCT-116 = tested on: HCT-116
OVCAR-3 = tested on: OVCAR-3
MDA-MB-231 = tested on: MDA-MB-231
SF-268 = tested on: SF-268
NCI-H226 = tested on: NCI-H226
HCT-15 = tested on: HCT-15
MDA-MB-435 = tested on: MDA-MB-435
A549 = tested on: A549
HOP-62 = tested on: HOP-62
SNB-19 = tested on: SNB-19
ACHN = tested on: ACHN
OVCAR-4 = tested on: OVCAR-4
CCRF-CEM = tested on: CCRF-CEM
MCF7 = tested on: MCF7

SMILES: CC(=O)CSCc1ccccn1
- GI50 (IGROV-1): 37.8 µM (inactive)
- GI50 (SK-MEL-2): 25.9 µM (inactive)
- GI50 (HL-60): 29.1 µM (inactive)
- GI50 (UACC-62): 31.3 µM (inactive)
- GI50 (Malme-3M): 4.72 µM (inactive)
- GI50 (HCT-116): 45.3 µM (inactive)
- GI50 (OVCAR-3): 30.3 µM (inactive)
- GI50 (MDA-MB-231): 75.9 µM (inactive)
- GI50 (SF-268): 8.87 µM (inactive)
- GI50 (NCI-H226): 19.9 µM (inactive)
- GI50 (HCT-15): 86.5 µM
- GI50 (MDA-MB-435): 33.4 µM (inactive)
- GI50 (A549): 62.5 µM (inactive)
- GI50 (HOP-62): 42.4 µM (inactive)
- GI50 (SNB-19): 50.9 µM (inactive)
- GI50 (ACHN): 61.5 µM (inactive)
- GI50 (OVCAR-4): 83.8 µM (inactive)
- GI50 (CCRF-CEM): 39.9 µM (inactive)

SMILES: CN(C)CCSc1cccc(-c2cc(-c3cccc(SCCN(C)C)c3)nc(SCCN(C)C)n2)c1
- GI50 (IGROV-1): 3.37 µM (inactive)
- GI50 (SK-MEL-2): 7.96 µM (inactive)
- GI50 (HL-60): 1.85 µM (inactive)
- GI50 (UACC-62): 17.5 µM (inactive)
- GI50 (Malme-3M): 1.87 µM (inactive)
- GI50 (HCT-116): 1.17 µM (inactive)
- GI50 (OVCAR-3): 10.2 µM (inactive)
- GI50 (HCT-15): 2.18 µM
- GI50 (A549): 1.71 µM (inactive)
- GI50 (HOP-62): 16.3 µM (inactive)
- GI50 (ACHN): 5.77 µM (inactive)
- GI50 (OVCAR-4): 1.67 µM (inactive)
- GI50 (CCRF-CEM): 1.69 µM (inactive)

SMILES: C[C@H]1C(=O)O[C@@H]1[C@H]1COC(C)(C)O1
- GI50 (SK-MEL-2): > 100 µM (inactive)
- GI50 (HL-60): 0.769 µM (active)
- GI50 (MCF7): > 100 µM (inactive)
- GI50 (UACC-62): > 100 µM (inactive)
- GI50 (OVCAR-3): > 100 µM (inactive)
- GI50 (MDA-MB-231): > 100 µM (inactive)
- GI50 (SF-268): > 100 µM (inactive)
- GI50 (NCI-H226): > 100 µM (inactive)
- GI50 (HCT-15): > 100 µM
- GI50 (MDA-MB-435): > 100 µM (inactive)
- GI50 (A549): > 100 µM (inactive)
- GI50 (HOP-62): > 100 µM (inactive)
- GI50 (SNB-19): > 100 µM (inactive)
- GI50 (ACHN): > 100 µM (inactive)
- GI50 (OVCAR-4): > 100 µM (inactive)
- GI50 (CCRF-CEM): 32.5 µM (inactive)

SMILES: O=C(COc1ccc(OCC(=O)N2C(=O)CS/C2=N\c2ccccc2)cc1)N1C(=O)CS/C1=N\c1ccccc1
- GI50 (IGROV-1): 2.38 µM (inactive)
- GI50 (SK-MEL-2): 25.9 µM (inactive)
- GI50 (MCF7): 19 µM (inactive)
- GI50 (UACC-62): 8.13 µM (inactive)
- GI50 (Malme-3M): 4 µM (inactive)
- GI50 (HCT-116): 10.6 µM (inactive)
- GI50 (MDA-MB-231): 15.6 µM (inactive)
- GI50 (SF-268): 27.5 µM (inactive)
- GI50 (NCI-H226): 26.5 µM (inactive)
- GI50 (HCT-15): 28.1 µM
- GI50 (MDA-MB-435): 23.7 µM (inactive)
- GI50 (A549): 23.6 µM (inactive)
- GI50 (SNB-19): 31.6 µM (inactive)
- GI50 (ACHN): 12.5 µM (inactive)
- GI50 (OVCAR-4): 33.5 µM (inactive)

SMILES: Cc1cccc(NC(=S)Nc2ccccc2Cl)n1
- GI50 (IGROV-1): 30.1 µM (inactive)
- GI50 (SK-MEL-2): > 100 µM (inactive)
- GI50 (HL-60): > 100 µM (inactive)
- GI50 (MCF7): > 100 µM (inactive)
- GI50 (UACC-62): 41 µM (inactive)
- GI50 (Malme-3M): 38 µM (inactive)
- GI50 (HCT-116): > 100 µM (inactive)
- GI50 (OVCAR-3): > 100 µM (inactive)
- GI50 (SF-268): 28.7 µM (inactive)
- GI50 (NCI-H226): 39 µM (inactive)
- GI50 (HCT-15): 76.9 µM
- GI50 (MDA-MB-435): > 100 µM (inactive)
- GI50 (A549): 47.6 µM (inactive)
- GI50 (HOP-62): 22.3 µM (inactive)
- GI50 (SNB-19): 25.1 µM (inactive)
- GI50 (OVCAR-4): 24.4 µM (inactive)
- GI50 (CCRF-CEM): > 100 µM (inactive)

SMILES: S=C1c2ccc(Cl)cc2-n2cnnc2C2CSCN12 (centres undefined)
- GI50 (IGROV-1): > 100 µM (inactive)
- GI50 (SK-MEL-2): > 100 µM (inactive)
- GI50 (MCF7): > 100 µM (inactive)
- GI50 (UACC-62): > 100 µM (inactive)
- GI50 (Malme-3M): > 100 µM (inactive)
- GI50 (HCT-116): 62.5 µM (inactive)
- GI50 (OVCAR-3): > 100 µM (inactive)
- GI50 (MDA-MB-231): > 100 µM (inactive)
- GI50 (SF-268): > 100 µM (inactive)
- GI50 (NCI-H226): > 100 µM (inactive)
- GI50 (HCT-15): > 100 µM
- GI50 (MDA-MB-435): 95.1 µM (inactive)
- GI50 (A549): > 100 µM (inactive)
- GI50 (HOP-62): > 100 µM (inactive)
- GI50 (SNB-19): > 100 µM (inactive)
- GI50 (ACHN): > 100 µM (inactive)
- GI50 (OVCAR-4): > 100 µM (inactive)
- GI50 (CCRF-CEM): > 100 µM (inactive)

SMILES: C=C(CC)C[C@@H]1C[C@]2(C(=O)OC)c3[nH]c4ccccc4c3CCN2C1=O
- GI50 (IGROV-1): 20.3 µM (inactive)
- GI50 (SK-MEL-2): 17.1 µM (inactive)
- GI50 (HL-60): 23.4 µM (inactive)
- GI50 (MCF7): 20.7 µM (inactive)
- GI50 (UACC-62): 16.9 µM (inactive)
- GI50 (Malme-3M): 20.7 µM (inactive)
- GI50 (HCT-116): 14.7 µM (inactive)
- GI50 (OVCAR-3): 14.1 µM (inactive)
- GI50 (MDA-MB-231): 24.7 µM (inactive)
- GI50 (SF-268): 21.6 µM (inactive)
- GI50 (HCT-15): 16.6 µM
- GI50 (MDA-MB-435): 19.3 µM (inactive)
- GI50 (A549): 14.7 µM (inactive)
- GI50 (HOP-62): 17.9 µM (inactive)
- GI50 (SNB-19): 17.8 µM (inactive)
- GI50 (ACHN): 26.1 µM (inactive)
- GI50 (OVCAR-4): 37.8 µM (inactive)

SMILES: CCOC(=O)c1cn2c(n1)sc1cc(F)ccc12
- GI50 (IGROV-1): > 100 µM (inactive)
- GI50 (SK-MEL-2): > 100 µM (inactive)
- GI50 (MCF7): 46.9 µM (inactive)
- GI50 (UACC-62): > 100 µM (inactive)
- GI50 (Malme-3M): > 100 µM (inactive)
- GI50 (HCT-116): 50.6 µM (inactive)
- GI50 (OVCAR-3): > 100 µM (inactive)
- GI50 (MDA-MB-231): 92.7 µM (inactive)
- GI50 (SF-268): 82.2 µM (inactive)
- GI50 (NCI-H226): > 100 µM (inactive)
- GI50 (HCT-15): > 100 µM
- GI50 (MDA-MB-435): 42.3 µM (inactive)
- GI50 (A549): > 100 µM (inactive)
- GI50 (HOP-62): 29.5 µM (inactive)
- GI50 (SNB-19): > 100 µM (inactive)
- GI50 (ACHN): > 100 µM (inactive)
- GI50 (OVCAR-4): > 100 µM (inactive)
- GI50 (CCRF-CEM): > 100 µM (inactive)

SMILES: CC(=O)Oc1cc2c(c3ncccc13)OC(C)(C)C2
- GI50 (IGROV-1): 2.29 µM (inactive)
- GI50 (SK-MEL-2): 17.6 µM (inactive)
- GI50 (MCF7): 16.7 µM (inactive)
- GI50 (UACC-62): > 100 µM (inactive)
- GI50 (Malme-3M): 11 µM (inactive)
- GI50 (HCT-116): 13.4 µM (inactive)
- GI50 (OVCAR-3): 11.5 µM (inactive)
- GI50 (MDA-MB-231): 10.1 µM (inactive)
- GI50 (SF-268): 10.8 µM (inactive)
- GI50 (NCI-H226): 16.3 µM (inactive)
- GI50 (HCT-15): 11.8 µM
- GI50 (MDA-MB-435): 3.33 µM (inactive)
- GI50 (A549): 12.9 µM (inactive)
- GI50 (HOP-62): 5.85 µM (inactive)
- GI50 (ACHN): 11.1 µM (inactive)
- GI50 (OVCAR-4): 12.1 µM (inactive)
- GI50 (CCRF-CEM): 10.5 µM (inactive)
